Measurements reported in article PMC5628579, “Potent mechanism-based sirtuin-2-selective inhibition by an in situ-generated occupant of the substrate-binding site, “selectivity pocket” and NAD^+-binding site” (Chemical Science, 2017).
Where two headings read alike, the source gives them in different places. Where a SMILES comes first, the peptide text is derived from it. Side-chain parts run from the residue outwards. The star is where a group is joined. Cbz = O=C(OCc1ccccc1)*; Bz = O=C(c1ccccc1)*

Assays:
[1] = target: T1, SIRT5 (Homo sapiens, UniProt Q9NXA8); test: Fluor de Lys SIRT5 assay; details: for inhibition at 10 µM: read-out: % inhibition at 10 μM SIRT5; for inhibition at 50 µM: read-out: % inhibition at 50 μM SIRT5
T1 sequence (Q9NXA8 37-310): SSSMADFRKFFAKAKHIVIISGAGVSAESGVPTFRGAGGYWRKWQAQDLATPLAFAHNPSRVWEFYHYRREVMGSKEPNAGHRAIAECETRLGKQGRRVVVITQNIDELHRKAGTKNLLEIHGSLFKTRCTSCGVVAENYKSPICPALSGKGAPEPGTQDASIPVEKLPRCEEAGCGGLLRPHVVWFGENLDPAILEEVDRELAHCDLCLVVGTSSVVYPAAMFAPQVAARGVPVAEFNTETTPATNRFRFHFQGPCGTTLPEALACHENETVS

[2] = target: T2, SIRT2 (Homo sapiens, UniProt Q8IXJ6); test: Fluor de Lys SIRT2 assay; details: for inhibition at 10 µM: read-out: % inhibition at 10 μM SIRT2; for inhibition at 1 µM: read-out: % inhibition at 1 μM SIRT2
T2 sequence (Q8IXJ6 1-389): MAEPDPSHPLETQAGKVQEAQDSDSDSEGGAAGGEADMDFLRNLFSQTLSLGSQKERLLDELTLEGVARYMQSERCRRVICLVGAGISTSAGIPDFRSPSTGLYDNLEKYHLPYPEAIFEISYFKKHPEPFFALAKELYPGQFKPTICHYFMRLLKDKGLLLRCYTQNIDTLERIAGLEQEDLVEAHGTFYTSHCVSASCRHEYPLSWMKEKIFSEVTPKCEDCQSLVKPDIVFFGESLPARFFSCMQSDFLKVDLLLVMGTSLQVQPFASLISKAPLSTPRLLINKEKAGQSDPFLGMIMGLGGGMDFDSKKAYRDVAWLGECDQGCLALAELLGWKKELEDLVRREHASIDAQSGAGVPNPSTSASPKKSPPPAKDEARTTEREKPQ

[3] = target: T3, SIRT3 (Homo sapiens, UniProt Q9NTG7); test: Fluor de Lys SIRT3 assay; details: for inhibition at 10 µM: read-out: % inhibition at 10 μM SIRT3; for inhibition at 50 µM: read-out: % inhibition at 50 μM SIRT3
T3 sequence (Q9NTG7 1-399): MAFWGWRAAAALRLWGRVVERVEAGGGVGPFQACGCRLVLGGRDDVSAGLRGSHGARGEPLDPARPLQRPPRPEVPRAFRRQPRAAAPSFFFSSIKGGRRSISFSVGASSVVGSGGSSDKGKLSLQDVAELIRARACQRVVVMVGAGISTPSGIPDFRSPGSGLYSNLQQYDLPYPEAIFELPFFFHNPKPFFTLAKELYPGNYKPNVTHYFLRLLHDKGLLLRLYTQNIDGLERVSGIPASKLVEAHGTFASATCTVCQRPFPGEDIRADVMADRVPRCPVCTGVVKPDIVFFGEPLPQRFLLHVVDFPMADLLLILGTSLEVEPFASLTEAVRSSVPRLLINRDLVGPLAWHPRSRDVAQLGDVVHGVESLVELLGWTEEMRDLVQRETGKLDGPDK

[4] = target: T4, SIRT1 (Homo sapiens, UniProt Q96EB6); test: Fluor de Lys SIRT1 assay; details: for inhibition at 10 µM: read-out: % inhibition at 10 μM SIRT1; for inhibition at 50 µM: read-out: % inhibition at 50 μM SIRT1
T4 sequence (Q96EB6 1-747): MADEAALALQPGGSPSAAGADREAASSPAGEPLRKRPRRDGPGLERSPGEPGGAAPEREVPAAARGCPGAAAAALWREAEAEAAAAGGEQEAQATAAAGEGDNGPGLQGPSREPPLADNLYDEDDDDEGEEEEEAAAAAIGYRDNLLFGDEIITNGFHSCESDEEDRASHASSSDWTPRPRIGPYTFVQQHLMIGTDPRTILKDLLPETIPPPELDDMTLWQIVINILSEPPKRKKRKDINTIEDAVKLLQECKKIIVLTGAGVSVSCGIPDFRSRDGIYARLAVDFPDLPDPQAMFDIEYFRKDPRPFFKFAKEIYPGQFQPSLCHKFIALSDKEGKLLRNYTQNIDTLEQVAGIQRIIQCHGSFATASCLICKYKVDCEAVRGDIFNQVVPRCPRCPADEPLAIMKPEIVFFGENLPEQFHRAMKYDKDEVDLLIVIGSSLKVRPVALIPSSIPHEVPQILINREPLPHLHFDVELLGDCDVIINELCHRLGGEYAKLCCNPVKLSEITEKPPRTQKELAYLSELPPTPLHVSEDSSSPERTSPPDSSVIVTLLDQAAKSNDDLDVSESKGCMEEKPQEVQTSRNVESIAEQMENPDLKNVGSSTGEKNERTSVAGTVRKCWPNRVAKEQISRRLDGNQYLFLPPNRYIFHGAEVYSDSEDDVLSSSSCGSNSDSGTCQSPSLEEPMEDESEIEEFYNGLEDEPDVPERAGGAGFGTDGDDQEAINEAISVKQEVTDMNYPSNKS

[5] = target: T4, SIRT1; parameters: purchased Biomol / Enzo Life Sciences (Fluor de Lys kit AK-555) BML-SE239-0100; details: cited from earlier work
[6] = target: T3, SIRT3; parameters: purchased Biomol / Enzo Life Sciences (Fluor de Lys kit AK-557) BML-SE270-0500; details: cited from earlier work
[7] = test system: MDA-MB-231 cells; test: Cell growth assay (AlamarBlue), MDA-MB-231; assay type: cell-based, human; details: Homo sapiens, 72 h of treatment

inhibition at 10 µM [1] [%]	inhibition at 50 µM [1] [%]	inhibition at 10 µM [2] [%]	inhibition at 10 µM [3] [%]	inhibition at 50 µM [3] [%]	inhibition at 10 µM [4] [%]	inhibition at 50 µM [4] [%]	inhibition at 1 µM [2] [%]	IC50 [2] [µM]	GI50 ([7]; MDA-MB-231, 72 h) [µM]	reduction of the SIRT2 inhibitory activity ([2]; removal of the phenoxyethyl fragment, relative to 26) [%]	SIRT2 inhibition (in words) [2]	inhibition at 50 µM ([2]; read-out: % inhibition at 50 μM SIRT2) [%]	IC50 [3] [µM]	inhibition at 1 µM ([3]; read-out: % inhibition at 1 μM SIRT3) [%]	IC50 [4] [µM]	inhibition at 1 µM ([4]; read-out: % inhibition at 1 μM SIRT1) [%]	Structure (SMILES)	IC50 [5] [µM]	IC50 [6] [µM]	GI50 [7] [µM]
10 ± 2.6	12	90 ± 1.5	1 ± 2.6	12	3 ± 3.6	14	32 ± 4.1	1.74 ± 0.26	> 30								NC(=O)c1ccccc1Nc1cccc(OCCc2ccccc2)c1 [Compound 6, 3′-phenethyloxy-2-anilinobenzamide, reference compound]	> 300	> 300	
0	3	45 ± 2.9			0.9 ± 0.62	14											N#C/C(=C\c1ccc(-c2cc(Cl)ccc2Cl)o1)C(=O)Nc1cccc2ncccc12 [Compound 7, AGK2, reference compound]			
0	0	31 ± 0.42	0	0	6.2 ± 0.85	25											O=C(Nc1cccc([N+](=O)[O-])c1)c1cccc(S(=O)(=O)N2CCCCCC2)c1 [Compound 8, AK-1, reference compound]			
0	4	85 ± 0.47	10 ± 0.95	13	10 ± 1.9	18	19 ± 0.63	3.6 ± 0.03									NC(=O)CNC(=O)c1ccccc1Nc1cccc(OCCc2ccccc2)c1 [Compound 17]			
0	3	81 ± 0.43	0	3	2 ± 1	12		4.04 ± 0.65									CCCNC(=O)CNC(=O)c1ccccc1Nc1cccc(OCCc2ccccc2)c1 [Compound 18]			
6 ± 3.2	6	69 ± 2.2	3 ± 3.2	2	4.5 ± 3.4	4		6.71 ± 0.42									CCCCCNC(=O)CNC(=O)c1ccccc1Nc1cccc(OCCc2ccccc2)c1 [Compound 19]			
0	6	99 ± 0.15	14 ± 4.9	56	16 ± 0.1	25	74 ± 2	0.37 ± 0.03	10.8								C[C@H](NC(=O)[C@H](CCCCNC(=O)CNC(=O)c1ccccc1Nc1cccc(OCCc2ccccc2)c1)NC(=O)OCc1ccccc1)C(N)=O [Compound 26]			
0	3	80 ± 0.12	9 ± 2.2	16	24 ± 2.1	68		1.84 ± 0.21		~20							C[C@H](NC(=O)[C@H](CCCCNC(=O)CNC(=O)c1ccccc1Nc1ccccc1)NC(=O)OCc1ccccc1)C(N)=O [Compound 27]			
0	0	8 ± 3.3	1 ± 1.8	0	3.5 ± 1	1					no SIRT2 inhibition	18					C[C@H](NC(=O)[C@H](CCCCNC(=O)CNC(=O)c1ccccc1)NC(=O)OCc1ccccc1)C(N)=O [Compound 28] (Cbz-Lys([Gly-Bz])-Ala-NH2)			
1 ± 2.2	3	54 ± 1.5	0	0	0	10		8.47 ± 0.3									CCCNC(=S)CNC(=O)c1ccccc1Nc1cccc(OCCc2ccccc2)c1 [Compound 41]			
0	3	40 ± 3.4	0	2	0	11		19.3 ± 3.1									CCCCCNC(=S)CNC(=O)c1ccccc1Nc1cccc(OCCc2ccccc2)c1 [Compound 42]			
3 ± 3.9	6	99 ± 3.2	65 ± 0.23		97 ± 0.04		56 ± 1.9	0.59 ± 0.13					4.39 ± 0.28	19 ± 0.78	0.18 ± 0.013	83 ± 0.4	CC(=S)NCCCC[C@H](NC(=O)OCc1ccccc1)C(=O)N[C@@H](C)C(N)=O [UKU 10363, reference compound]			

Structure (SMILES)	inhibition at 10 µM [1] [%]	inhibition at 50 µM [1] [%]	inhibition at 10 µM [2] [%]	inhibition at 10 µM [3] [%]	inhibition at 50 µM [3] [%]	inhibition at 10 µM [4] [%]	inhibition at 50 µM [4] [%]	inhibition at 1 µM [2] [%]	IC50 [2] [µM]	GI50 ([7]; MDA-MB-231, 72 h) [µM]	reduction of the SIRT2 inhibitory activity ([2]; removal of the phenoxyethyl fragment, relative to 26) [%]	SIRT2 inhibition (in words) [2]	inhibition at 50 µM ([2]; read-out: % inhibition at 50 μM SIRT2) [%]	IC50 [3] [µM]	inhibition at 1 µM ([3]; read-out: % inhibition at 1 μM SIRT3) [%]	IC50 [4] [µM]	inhibition at 1 µM ([4]; read-out: % inhibition at 1 μM SIRT1) [%]	IC50 [5] [µM]	IC50 [6] [µM]	GI50 [7] [µM]
CN(C)CCCCC(=O)Nc1ccc(NC(=S)NC(=O)c2ccc(C(C)(C)C)cc2)cc1 [Compound 3, tenovin-6, reference compound]	0	2	45 ± 2.5	0	9	0.9 ± 0.17	64													
Cc1cc(C)nc(SCC(=O)Nc2ncc(Cc3cccc4ccccc34)s2)n1 [Compound 5, SirReal2, reference compound]	3 ± 1.5	1	98 ± 3.1	5 ± 0.6	1	3 ± 0.65	6	80 ± 1.5										> 100	> 100	9.46
NC(=O)C1CCCc2c1[nH]c1ccc(Cl)cc21 (stereo not shown) [Compound 9, EX-527, reference compound]	0	0	79 ± 1.3			97 ± 0.13				> 30										
